The target in experiment [1] is Cannabinoid receptor 1 (Homo sapiens, UniProt P21554). The experiment is classed as cell membranes, Chem-1, Membrane. The conditions noted are these: chem-1. Also: in other assays of this panel Not Active means under 50% inhibition at 10 µM.
Experiment [2] can be described thus: DRUGMATRIX: Imidazoline I2, Central radioligand binding (ligand: [3H] Idazoxan). Type of experiment: cell membranes, Rattus norvegicus, Wistar, Cerebral cortex, Membrane. The following applies: Not Active = under 50% inhibition at 10 µM.
Experiment [3] addresses T1, Muscarinic acetylcholine receptor M5 (Homo sapiens, UniProt P08912).
T1 sequence (P08912 whole entry): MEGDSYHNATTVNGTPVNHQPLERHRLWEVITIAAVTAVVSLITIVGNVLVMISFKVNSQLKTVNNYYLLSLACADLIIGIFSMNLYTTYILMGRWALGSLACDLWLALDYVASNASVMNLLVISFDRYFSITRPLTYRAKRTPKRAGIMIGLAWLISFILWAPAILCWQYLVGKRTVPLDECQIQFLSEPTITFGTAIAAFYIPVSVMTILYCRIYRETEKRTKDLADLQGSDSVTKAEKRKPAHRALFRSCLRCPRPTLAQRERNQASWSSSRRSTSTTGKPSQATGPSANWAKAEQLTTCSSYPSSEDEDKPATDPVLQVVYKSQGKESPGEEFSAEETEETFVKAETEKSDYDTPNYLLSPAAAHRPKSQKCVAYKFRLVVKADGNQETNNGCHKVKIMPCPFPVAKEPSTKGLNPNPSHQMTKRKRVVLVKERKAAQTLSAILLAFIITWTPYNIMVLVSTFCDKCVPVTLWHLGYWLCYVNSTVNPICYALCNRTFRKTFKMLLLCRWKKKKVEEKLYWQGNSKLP
The experiment is classed as cell membranes, CHO-K1, Membrane.

The nature of experiment [4]: DRUGMATRIX: Calcium Channel Type L, Dihydropyridine radioligand binding (ligand: [3H] Nitrendipine). The following applies: Not Active = under 50% inhibition at 10 µM. The experiment is classed as cell membranes, Rattus norvegicus, Wistar, Cerebral cortex, Membrane.
Experiment [5] has as its target Epidermal growth factor receptor (Homo sapiens, UniProt P00533). Put plainly: DRUGMATRIX: Protein Tyrosine Kinase, EGF Receptor enzyme inhibition (substrate: Poly(Glu:Tyr)). The experiment is classed as cell-based, Insect cells. The following applies: Not Active = under 50% inhibition at 10 µM.
The target in experiment [6] is Acetylcholinesterase (Homo sapiens, UniProt P22303). The experiment is described as follows: DRUGMATRIX: Acetylcholinesterase enzyme inhibition (substrate: acetylthiocholine). The experiment is classed as cell-based, HEK293. The following applies: hek293; Not Active = under 50% inhibition at 10 µM.

The IC50 is the concentration that inhibits the measured activity by half. As a reminder, the Ki is a measure of affinity in units of concentration, obtained from inhibition or displacement.

Acetylcholinesterase, sequence (P22303 whole entry): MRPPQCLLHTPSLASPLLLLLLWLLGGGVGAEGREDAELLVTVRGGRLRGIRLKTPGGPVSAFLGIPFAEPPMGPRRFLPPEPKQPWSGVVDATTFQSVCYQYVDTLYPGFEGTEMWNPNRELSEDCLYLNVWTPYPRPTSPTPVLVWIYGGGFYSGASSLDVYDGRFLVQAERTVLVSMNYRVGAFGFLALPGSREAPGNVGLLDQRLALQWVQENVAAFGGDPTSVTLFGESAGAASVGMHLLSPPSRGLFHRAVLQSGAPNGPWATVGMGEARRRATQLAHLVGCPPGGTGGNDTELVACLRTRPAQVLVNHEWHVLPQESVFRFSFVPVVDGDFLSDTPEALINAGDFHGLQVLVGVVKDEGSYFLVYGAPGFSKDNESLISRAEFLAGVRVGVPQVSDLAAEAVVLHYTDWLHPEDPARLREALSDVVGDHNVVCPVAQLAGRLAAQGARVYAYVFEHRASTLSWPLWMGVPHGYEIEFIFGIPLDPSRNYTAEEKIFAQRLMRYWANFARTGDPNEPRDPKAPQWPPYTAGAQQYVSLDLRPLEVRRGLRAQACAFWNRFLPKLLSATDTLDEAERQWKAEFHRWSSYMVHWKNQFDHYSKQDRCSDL
Epidermal growth factor receptor, sequence (P00533 whole entry): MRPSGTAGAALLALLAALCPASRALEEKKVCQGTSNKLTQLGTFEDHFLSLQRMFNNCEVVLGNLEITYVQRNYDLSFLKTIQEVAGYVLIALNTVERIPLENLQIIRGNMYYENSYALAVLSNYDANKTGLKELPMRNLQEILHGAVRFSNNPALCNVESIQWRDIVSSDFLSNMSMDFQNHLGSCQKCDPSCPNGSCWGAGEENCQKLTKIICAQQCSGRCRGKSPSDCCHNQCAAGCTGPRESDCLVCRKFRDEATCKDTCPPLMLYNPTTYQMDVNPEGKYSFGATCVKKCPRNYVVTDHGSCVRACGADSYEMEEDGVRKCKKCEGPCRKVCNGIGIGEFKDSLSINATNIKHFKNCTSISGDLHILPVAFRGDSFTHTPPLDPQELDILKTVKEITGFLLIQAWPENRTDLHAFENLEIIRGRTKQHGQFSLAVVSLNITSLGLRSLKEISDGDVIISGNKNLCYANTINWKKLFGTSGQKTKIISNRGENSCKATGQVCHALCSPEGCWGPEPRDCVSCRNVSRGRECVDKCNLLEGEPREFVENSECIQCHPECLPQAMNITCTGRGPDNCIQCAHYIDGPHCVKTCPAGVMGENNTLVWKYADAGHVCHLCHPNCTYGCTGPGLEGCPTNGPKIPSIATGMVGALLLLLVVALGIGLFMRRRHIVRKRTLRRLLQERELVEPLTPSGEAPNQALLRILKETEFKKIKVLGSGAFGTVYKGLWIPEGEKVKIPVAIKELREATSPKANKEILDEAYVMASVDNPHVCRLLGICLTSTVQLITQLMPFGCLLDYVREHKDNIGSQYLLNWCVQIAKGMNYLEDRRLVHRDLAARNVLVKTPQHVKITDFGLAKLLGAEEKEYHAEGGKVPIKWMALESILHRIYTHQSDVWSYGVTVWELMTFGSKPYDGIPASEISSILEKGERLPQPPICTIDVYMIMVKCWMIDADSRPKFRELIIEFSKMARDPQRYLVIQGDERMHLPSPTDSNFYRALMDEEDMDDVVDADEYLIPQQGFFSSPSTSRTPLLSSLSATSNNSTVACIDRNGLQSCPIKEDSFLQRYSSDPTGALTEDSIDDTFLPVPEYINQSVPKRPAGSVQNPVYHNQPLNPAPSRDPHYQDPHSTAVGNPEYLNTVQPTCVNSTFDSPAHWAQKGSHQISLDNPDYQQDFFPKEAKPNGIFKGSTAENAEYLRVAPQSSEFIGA
Cannabinoid receptor 1, sequence (P21554 whole entry): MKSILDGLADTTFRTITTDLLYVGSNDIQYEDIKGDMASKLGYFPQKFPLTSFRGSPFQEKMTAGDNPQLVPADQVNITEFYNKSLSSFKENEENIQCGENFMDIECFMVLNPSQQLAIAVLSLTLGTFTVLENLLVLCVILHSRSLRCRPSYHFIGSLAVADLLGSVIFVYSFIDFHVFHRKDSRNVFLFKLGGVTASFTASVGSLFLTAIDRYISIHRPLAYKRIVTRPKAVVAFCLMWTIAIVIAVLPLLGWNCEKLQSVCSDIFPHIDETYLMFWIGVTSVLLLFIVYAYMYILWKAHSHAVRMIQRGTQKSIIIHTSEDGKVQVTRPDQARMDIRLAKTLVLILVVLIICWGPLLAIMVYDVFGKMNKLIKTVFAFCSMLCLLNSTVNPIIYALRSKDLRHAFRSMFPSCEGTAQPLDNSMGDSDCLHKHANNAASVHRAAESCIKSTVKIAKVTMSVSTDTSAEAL

`CCOc1nc2cccc(C(=O)O)c2n1Cc1ccc(-c2ccccc2-c2nnn[nH]2)cc1`: the IC50 result in experiment [1] was “Not Active”; in experiment [2] it was “Not Active”; in experiment [3] (cho-k1) it was “Not Active”; in experiment [4], “Not Active”; in experiment [5] (read-out: IC50), 3.28 µM; in experiment [6] it was “Not Active”. Also, the Ki result in experiment [2] and in experiment [4] was “Not Active” each time.
With `O=C(O)CCCc1cccs1`, the IC50 entry in experiment [1], in experiment [2], in experiment [3] (cho-k1), in experiment [4], in experiment [5] (insect cells) and in experiment [6] was “Not Active” in each case. The Ki result in experiment [2] and in experiment [4] was “Not Active” each time.
Take `COc1ccccc1N`: the IC50 result in experiment [1], in experiment [2], in experiment [3] (cho-k1), in experiment [4], in experiment [5] (insect cells) and in experiment [6] was “Not Active” each time. Also, the Ki result in experiment [2] and in experiment [4] was “Not Active” in each case.
For the compound `O=C(c1ccccc1F)N1CCC(Cc2ccccc2)CC1`, the IC50 entry in experiment [1], in experiment [2], in experiment [3] (cho-k1), in experiment [4], in experiment [5] (insect cells) and in experiment [6] was “Not Active” each time. The Ki result in experiment [2] and in experiment [4] was “Not Active” throughout.
In the case of `Cc1c(O)cccc1C(=O)N[C@@H](CSc1ccccc1)[C@H](O)CN1C[C@H]2CCCC[C@H]2C[C@H]1C(=O)NC(C)(C)C`, the IC50 entry was “Not Active” in experiment [1]; “Not Active” in experiment [2]; 86.1 µM in experiment [3] (read-out: IC50); 9.84 µM in experiment [4] (read-out: IC50); 55.6 µM in experiment [5] (read-out: IC50); “Not Active” in experiment [6]. Further, the Ki entry in experiment [2] was “Not Active”; in experiment [3] (read-out: Ki), 61.8 µM; in experiment [4] (read-out: Ki), 6.32 µM.
As to `CC(O)COC[C@H]1O[C@@H]2O[C@H]3[C@H](O)[C@@H](O)[C@@H](O[C@H]4[C@H](O)[C@@H](O)[C@@H](O[C@H]5[C@H](O)[C@@H](O)[C@@H](O[C@H]6[C@H](O)[C@@H](O)[C@@H](O[C@H]7[C@H](O)[C@@H](O)[C@@H](O[C@H]8[C@H](O)[C@@H](O)[C@@H](O[C@H]1[C@H](O)[C@H]2O)O[C@@H]8COCC(C)O)O[C@@H]7COCC(C)O)O[C@@H]6COCC(C)O)O[C@@H]5COCC(C)O)O[C@@H]4COCC(C)O)O[C@@H]3COCC(C)O` (stereo partly drawn) [2-HYDROXYPROPYL-BETA-CYCLODEXTRIN], the IC50 result in experiment [1], in experiment [2], in experiment [3] (cho-k1), in experiment [4], in experiment [5] (insect cells) and in experiment [6] was “Not Active” in each case. In addition, the Ki result in experiment [2] and in experiment [4] was “Not Active” in each case.
As to `NC(=O)c1cccc(N)c1` [3-AMINOBENZAMIDE], the IC50 entry in experiment [1], in experiment [2], in experiment [3] (cho-k1), in experiment [4], in experiment [5] (insect cells) and in experiment [6] was “Not Active” in each case. Further, the Ki result in experiment [2] and in experiment [4] was “Not Active” throughout.
For `C[C@H]1O[C@H](O[C@H]2[C@H](O)[C@@H](O)[C@@H](O[C@H]3[C@H](O)[C@@H](O)C(O)O[C@@H]3CO)O[C@@H]2CO)[C@H](O)[C@@H](O)[C@@H]1N[C@H]1C=C(CO)[C@@H](O)[C@H](O)[C@H]1O` (some centres not stated) [ACARBOSE], the 50% inhibitory concentration (IC50) result in experiment [1], in experiment [2], in experiment [3] (cho-k1), in experiment [4], in experiment [5] (insect cells) and in experiment [6] was “Not Active” each time. In addition, the inhibition constant Ki entry in experiment [2] and in experiment [4] was “Not Active” each time.
On to `CC[C@H]1[C@@H]2C[C@H]3[C@@H]4N(C)c5ccccc5[C@]45C[C@@H]([C@@H]2[C@H]5O)N3[C@@H]1O` [AJMALINE], for which the IC50 entry in experiment [1], in experiment [2], in experiment [3] (cho-k1), in experiment [4], in experiment [5] (insect cells) and in experiment [6] was “Not Active” each time. For the same compound, the Ki result in experiment [2] and in experiment [4] was “Not Active” in each case.
As for `NC12CC3CC(CC(C3)C1)C2` [AMANTADINE], the half-maximal inhibitory concentration (IC50) result in experiment [1], in experiment [2], in experiment [3] (cho-k1), in experiment [4], in experiment [5] (insect cells) and in experiment [6] was “Not Active” throughout. The Ki entry in experiment [2] and in experiment [4] was “Not Active” each time.
For the compound `NCCCNCCSP(=O)(O)O` [AMIFOSTINE], the IC50 entry in experiment [1], in experiment [2], in experiment [3] (cho-k1), in experiment [4], in experiment [5] (insect cells) and in experiment [6] was “Not Active” in each case. The Ki result in experiment [2] and in experiment [4] was “Not Active” throughout.
On to `CN(C)CCC=C1c2ccccc2CCc2ccccc21` [AMITRIPTYLINE], for which the IC50 result in experiment [1] is “Not Active”; in experiment [2] (read-out: IC50) it was 1.69 µM; in experiment [3] (read-out: IC50), 0.00802 µM; in experiment [4], “Not Active”; in experiment [5] (insect cells) it was “Not Active”; in experiment [6] it was “Not Active”. For the same compound, the inhibition constant Ki in experiment [2] (read-out: Ki) is 1.12 µM; in experiment [3] (read-out: Ki), 0.00576 µM; in experiment [4], “Not Active”.
As for `CC(=O)Oc1ccccc1C(=O)O` [ASPIRIN], the IC50 result in experiment [1], in experiment [2], in experiment [3] (cho-k1), in experiment [4], in experiment [5] (insect cells) and in experiment [6] was “Not Active” in each case. For the same compound, the Ki entry in experiment [2] and in experiment [4] was “Not Active” in each case.
Regarding `CC(C)c1c(C(=O)Nc2ccccc2)c(-c2ccccc2)c(-c2ccc(F)cc2)n1CC[C@@H](O)C[C@@H](O)CC(=O)O` [ATORVASTATIN], the IC50 entry in experiment [1], in experiment [2], in experiment [3] (cho-k1), in experiment [4], in experiment [5] (insect cells) and in experiment [6] was “Not Active” throughout. For the same compound, the Ki result in experiment [2] and in experiment [4] was “Not Active” throughout.
As to `CC(=O)OC[C@H]1O[C@@H](n2ncc(=O)[nH]c2=O)[C@H](OC(C)=O)[C@@H]1OC(C)=O` [AZARIBINE], the IC50 result in experiment [1], in experiment [2], in experiment [4], in experiment [5] (insect cells) and in experiment [6] was “Not Active” each time. In addition, the Ki result in experiment [2], in experiment [3] (cho-k1) and in experiment [4] was “Not Active” each time.
Turning to `C[C@H]1[C@H](NC(=O)/C(=N\OC(C)(C)C(=O)O)c2csc(N)n2)C(=O)N1S(=O)(=O)O` [AZTREONAM], the IC50 entry in experiment [1], in experiment [2], in experiment [3] (cho-k1), in experiment [4], in experiment [5] (insect cells) and in experiment [6] was “Not Active” in each case. Moreover, the Ki entry in experiment [2] and in experiment [4] was “Not Active” each time.
With `O=C(O)CCNC(=O)c1ccc(/N=N/c2ccc(O)c(C(=O)O)c2)cc1` [BALSALAZIDE], the IC50 result in experiment [1], in experiment [2], in experiment [3] (cho-k1), in experiment [4], in experiment [5] (insect cells) and in experiment [6] was “Not Active” throughout. Further, the Ki entry in experiment [2] and in experiment [4] was “Not Active” in each case.
On to `Cn1c(=O)c2c(ncn2C)n(C)c1=O` [CAFFEINE], for which the IC50 entry in experiment [1], in experiment [2], in experiment [3] (cho-k1), in experiment [4] and in experiment [6] was “Not Active” throughout. The Ki result in experiment [2] and in experiment [4] was “Not Active” each time.
As to `O=c1c(-c2ccc(O)cc2)coc2cc(O)cc(O)c12` [GENISTEIN], the IC50 entry in experiment [1], in experiment [2], in experiment [3] (cho-k1), in experiment [4] and in experiment [6] was “Not Active” in each case. Also, the Ki result in experiment [2] and in experiment [4] was “Not Active” in each case.
For the compound `CN(C)C(=O)Oc1cccc([N+](C)(C)C)c1.[Br-]` [NEOSTIGMINE BROMIDE], the IC50 entry in experiment [1], in experiment [2], in experiment [3] (cho-k1), in experiment [4] and in experiment [5] (insect cells) was “Not Active” in each case. Further, the inhibition constant Ki result in experiment [2] and in experiment [4] was “Not Active” throughout.
As for `CCN(CC)CCCC(C)Nc1c2ccc(Cl)cc2nc2ccc(OC)cc12` (configuration not stated) [QUINACRINE], the IC50 entry is “Not Active” in experiment [1]; 1.52 µM in experiment [2] (read-out: IC50); 3.74 µM in experiment [3] (read-out: IC50); “Not Active” in experiment [4]; “Not Active” in experiment [5] (insect cells). In addition, the Ki in experiment [2] (read-out: Ki) was 1.01 µM; in experiment [3] (read-out: Ki), 2.68 µM; in experiment [4], “Not Active”.

(Values after ChEMBL document CHEMBL1909046, “DrugMatrix in vitro pharmacology data”.)
